Assays:
[1] = test system: cells; assay: MTT experiment (in vitro cell toxicity); format: cell-based; settings: 2-20 times the Kd value concentration
Experimental: MTT assay was used to measure the in vitro cell toxicity in a 96-well plate. In brief, cells (6×10^3 cells per well) were treated with GGa-ICG (at concentrations of 0, 20, 200 nM, 10 μM, etc.), free drugs, or hybrids in the culture medium (RPMI1640 without FBS, unless otherwise specified; 37° C.; 5% CO2). […]

[2] = test system: PC tissues; assay: GGa-ICG staining of PC clinical tissue sections (confocal fluorescence microscopy); settings: 200 nM, paraffin sections
Experimental: Methods: Paraffin tissue blocks were provided by the Pathology Department of the Third Affiliated Hospital of Sun Yat-sen University (Guangzhou, China). Tissue sections were deparaffinized twice in xylene for 10 min each time, followed by rehydration in a series of graded ethanol (100%, 95%, and 70%) and rinsed in deionized water. After washing in PBS for 5 min, the sections were incubated in TE buffer (10 mM Tris, 1 mM EDTA, pH=8.0, per liter of ddH2O) and boiled in a microwave oven until boiling, then kept at 95° C. for 15 min to retrieve the antigen. The sections were allowed to cool naturally to room temperature and then washed three times with fresh PBS. After histological processing, tissue sections were incubated with binding buffer containing 20% FBS and 0.1 mg/mL Herring Sperm DNA at room temperature for 60 min, followed by incubation with 200 nM GGa-ICG in the binding buffer at 4° C. for 60 min. The sections were washed three times with fresh PBS, dehydrated, and sealed with Antifade PVA mounting medium. Finally, stained sections were imaged using a spinning disk confocal fluorescence microscope (Olympus IX71, Japan). Adjacent sections were stained with […] HE staining. Fluorescence signals were observed using a 40× objective lens (NA 0.90, UPLSAPO, Olympus, Japan). Images were analyzed using FV10-ASW 3.1 software.

[3] = biological target: T1, PSCA (Homo sapiens, UniProt O43653); assay: In vivo blocking of GGa-ICG by PSCA antibodies; set-up: endogenous in cells; species or system nude mice; settings: 1 mg PSCA antibody pre-injected, GGa-ICG 12 hours later
T1 sequence (O43653 12-83): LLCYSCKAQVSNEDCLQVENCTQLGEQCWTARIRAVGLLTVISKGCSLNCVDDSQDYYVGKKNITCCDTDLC
Experimental: 1 mg of PSCA antibody was pre-injected into nude mice, followed by injection of GGa-ICG 12 hours later, and live imaging was performed to observe the phenomenon of GGa-ICG binding.

[4] = test system: tumor cell lines with elevated PSCA expression; assay: Flow cytometry binding to other tumor cell lines; format: cell-based
From the text: PSCA is expressed at high levels in various tumors such as prostate cancer, bladder cancer, kidney cancer, breast cancer, colon cancer, lung cancer, pancreatic cancer, etc. Using the aforementioned method, T24 bladder cancer cells, Cakil renal cancer cells, MDA-MB468 breast cancer cells, HT29 colon cancer cells, PANC1 pancreatic cancer cells, NCI-H460 lung cancer cells, and other cell lines were stained with GGa-ICG for flow cytometry analysis. Positive cell lines were used to establish subcutaneous transplantation tumor models to detect the visualization of GGa-ICG in vivo.

[5] = Fluorescence stability detection; format: physicochemical
Experimental: Stability testing was divided into two groups: 1) stability testing under excitation wavelength and 2) stability testing of GGa-ICG under visible light. Excitation wavelength of 780 nm (GGa-ICG, ssDNA-ICG, and ICG) and visible light were used to excite the fluorescence probe GGa-ICG. Fluorescence detection was performed, and the changes in fluorescence intensity were recorded using a fluorescence spectrophotometer.

GGa-ICG: near-infrared probe: PSCA-binding nucleic acid aptamer GGa linked at 3′ to an ICG derivative dye (DNA TGCCACTACAGCTGGTTCGGTTTGGTGACTTCGTTCTTCGTTGTGGT; 3'-ICG dye, further chemistry not given here)
cell inhibition in MTT experiment [1]: no significant cell inhibition | binding rate with PC tissues [2]: 82.5% | fluorescence signal in PC and metastatic tissues [2]: Strong fluorescence signals | fluorescence signal in normal tissues [2]: No fluorescence signal | blocking of tumor visualization by PSCA antibody [3]: Completely Blocked | binding to tumor cell lines with elevated PSCA expression [4]: could bind | time after which fluorescence was extinguished ([5]; after excitation at 780 nm): 1 h | fluorescence quenching under visible light excitation ([5]; visible light, during the detection time): did not exhibit fluorescence quenching

— patent US20240358862A1, “Synthesis Method and Application of a Near-infrared Probe GGa-ICG specific binding to PSCA” (Guangzhou Shiyun Biotechnology Co., Ltd, priority 2022, published 2024)
